Results published in patent publication US20040242974A1, “Treatment of refractory depression with an opiate antagonist and an antidepressant” (priority 2001, published 2004).
“And” between values parts separate entries of the source, which are not always exact repeats. Equal values may be shown once.

Columns and labels:
depression = experiment: Clinical observation / patient report of response to medication (case reports); type: in vivo, human; settings: A person; for Response to antidepressants in the past: earlier episodes of unipolar depression, recurrent type
Experimental: Both antidepressants were stopped and they were then administered desipramine (a tricyclic antidepressant) up to 150 mg./day for 4 weeks. […] Desipramine was discontinued and a person was started on a course of electric shock treatment (ECT) on an outpatient basis. They received a total number of 8 treatments, administered 2 times per week.
(§1) Mrs. […] Lithium carbonate 300 mg. b.i.d. was added to the Prozac for one week, and afterward Prozac was increased over the next 4 weeks to 60 mg./day. […] In succession, they were tried on amitriptyline up to 300 mg./day with monitoring of medication blood levels, and venlafaxine up to 375 mg./day.

[1] = system: refractory depression characterized by dissociation; experiment: Glover Numbing Scale (GNS) self-report questionnaire measuring numbness/dissociation in the treated patient; type: in vivo, human
From the text: The Glover Numbing Scale was constructed to measure symptoms associated with the numb responses, and provides an adequate measure for determining whether a patient is in a dissociated state. Both males and females with major depression evidenced a bimodal distribution of scores on the GNS with a distance of three standard deviations between their respective means. The GNS has identified a unique subgroup within the population of people diagnosed with major depression who manifest the unique phenomenological experience and associated symptoms of having no feelings. […] By evaluating a patient with the Glover Numbing Scale prior to administration of an opiate antagonist, and reassessing the patient after treatment, one of skill in the art can readily determine if the opiate antagonist is reversing or alleviating dissociation.
In one embodiment, the Glover Numbing Scale is a 35-item self-report questionnaire that systematically measures the frequency of experiences associated with “numbness,” an essential symptom of dissociation. Each item is rated on a seven-point scale by the patient, with scores corresponding to the following responses: 1, never; 2, very rarely; 3, rarely; 4, occasionally; 5, frequently, 6, very frequently; and 7, always. The highest possible score according to the Glover Numbing Scale is 245 (35 items by 7 points per item); a higher score indicates a more persistent degree of numbness and associated symptoms of dissociation. […] See S. Ramirez, supra at 194-95. According to the present invention, a Glover Numbing Scale score greater than about 100 should be considered consistent with the presence of dissociation. […] In another embodiment, a GNS score less than about 60 can be considered clinically non-significant.
That is, according to one embodiment of the present invention, a patient evaluated according to the Beck Depression Inventory to have a total BDI of about 10 or more, would be diagnosed as suffering from depression. According to the present invention, the depressed patient would then be evaluated according to the Glover Numbing Scale to assess the refractory nature of the patient's depression. If the patient scored about 100 or above, and positively to any of the eight salient items on the GNS, the patient is then affirmatively diagnosed as suffering from refractory depression characterized by dissociation according to one embodiment of the present invention. According to the present invention, the diagnosis may be made immediately after evaluating the patient according to the Glover Numbing Scale in conjunction with the Beck Depression Inventory in the context of an initial diagnostic assessment. The 35 items of the Glover Numbing Scale (GNS) describe the breadth of problems that can be associated with dissociation. Eight of the 35 items, however, uniquely discriminate dissociative experiences from symptoms of depression at a very high degree of probability. It is recommended that these eight items be scored separately at the time of the initial evaluation, and be used to monitor the patient's response to treatment at regular intervals until the patient is in full remission or has achieved the maximum beneficial response to medication.
At the time of remission the patient's responses to all of the other […] items on the GNS can be individually assessed by the clinician to ascertain if any residual symptoms are present which may require further attention. […]

[2] = system: refractory depression characterized by dissociation; experiment: Beck Depression Inventory (BDI) questionnaire measuring depression in the treated patient; type: in vivo, human
From the text: Although any known test for measuring depression may be used as an indicator or measure of depression, the Beck Depression Inventory (“BDI”) is a preferred test for the present invention. The Beck Depression Inventory is a questionnaire developed by Aaron T. Beck, M.D. in 1978 to measure the presence and severity of depression. This test provides an exemplary method of measuring depression over the course of treatment according to the present invention. This test can also be used for reassessing a patient during treatment. The reassessment may be used to determine choice and dosage of antidepressant. The second edition of the Beck Depression Inventory is a 21-item questionnaire with each item rated on a four-point Likert scale (0-3) with total scores ranging from 0 to 63. A higher score indicates a more severe level of depression. Generally, a total score below 10 indicates no depression; a score from 10-16 indicates mild depression; 17-29 indicates moderate depression; and 30-63 indicates severe depression. According to the present invention, a score of about 10 or above would indicate diagnosis and treatment according to the present invention, with the patient more preferably presenting a BDI score of about 17 or above. A BDI score of less than about 10 is clinically non-significant. Eleven items of the BDI specifically identify how a depressed person thinks and feels about himself or herself. […] In paraphrased form they are: feeling disappointment in oneself; critical of oneself; suicidal thoughts; sadness; discouraged about the future; feelings of being punished; guilty; feeling like a failure; feeling a lack of satisfaction; feeling old/unattractive/ugly; and loss of interest in people. See S. Ramirez, supra.

patient = experiment: Side effects reported by the patient during treatment; type: in vivo, human; settings: A person; nalmefene 50 to 150 mg b.i.d.
Experimental: They were reassessed with the BDI and the GNS. One week later a person was able to identify their mood as sad and lonely. […] Their BDI was now scored at 20 and their GNS score fell to 70.
It was decided to maintain the patient on amitriptyline while introducing nalmefene 50 mg. b.i.d. Four days later the dose of nalmefene was doubled. A person was monitored for side effects and changes of mood, using the eight salient items of the GNS and the eleven salient items of the BDI as guides. Mrs. […] During each visit the dose was […] 50 mg. to a final dose of 200 mg./day. Mrs.

[3] = A person; lithium carbonate 300 mg b.i.d.
Experimental: as §1

[4] = A person, SAM-e 400 mg in divided doses, 800 mg five days later, started after the nalmefene course, one week afterward
[5] = lithium carbonate 300 mg b.i.d. added to Prozac, Prozac increased to 60 mg/day over 4 weeks

Compound: CN(C)CCC=C1c2ccccc2CCc2ccccc21 [amitriptyline]
- Clinical response (antidepressant effect) (depression; amitriptyline maintained while nalmefene introduced (50 mg b.i.d., doubled after four days)): began to feel the antidepressant effect for the first time
- Clinical response (depression; amitriptyline up to 300 mg/day, calming effect with some reduction of sadness and emptiness): improved their level of energy

Compound: CC(NC(C)(C)C)C(=O)c1cccc(Cl)c1 (stereo not drawn) [Bupropion]
- Clinical response (depression; Bupropion (sustain released) up to 300 mg/day added to paxil, other than some improvement in level of energy): little benefit

Compound: C=C1CC[C@@]2(O)[C@H]3Cc4ccc(O)c5c4[C@@]2(CCN3CC2CC2)[C@H]1O5 [nalmefene]
- GNS score ([1]; A person (Example 1), nalmefene 50 mg b.i.d. 3 days, 100 mg b.i.d. 4 days, then 150 mg b.i.d., one week later, score before treatment 142): 70
- GNS score ([1]; A person (Example 2), one week after nalmefene 200 mg b.i.d. reached, maintained on amitriptyline (final 200 mg/day), score before 148): 38
- Salient items of the GNS ([1]; A person, nalmefene 200 mg b.i.d. with amitriptyline): not to have been experienced
- Salient items of the GNS ([1]; A person, nalmefene up to 150 mg b.i.d., during the past week): not have been experienced
- BDI score ([2]; A person (Example 1), nalmefene 50 mg b.i.d. 3 days, 100 mg b.i.d. 4 days, then 150 mg b.i.d., one week later, score before treatment 23): 20
- BDI score ([2]; A person (Example 2), one week after nalmefene 200 mg b.i.d. reached, maintained on amitriptyline (final 200 mg/day), score before 24): 5
- Clinical response (feelings) (depression; nalmefene up to 150 mg b.i.d., one week later): no longer experienced any lack of feelings
- Clinical response (patient report) (depression; one week after nalmefene 200 mg b.i.d. reached, with amitriptyline): felt their usual self once again
- Side effects of drowsiness and tiredness (patient): mild and transient

Compound: CNCCCN1c2ccccc2CCc2ccccc21 [desipramine]
- Clinical response (depression; desipramine up to 150 mg/day for 4 weeks, remained essentially depressed): some decrease of crying spells
- Response to antidepressants in the past (depression): good responses

Compound: Fc1ccc([C@@H]2CCNC[C@H]2COc2ccc3c(c2)OCO3)cc1 [Paxil]
- Clinical response (depression; Paxil up to 60 mg/day, unsuccessfully administered): mild to moderate calming effect
- Response to antidepressants in the past (depression): good responses

Compound: COc1ccc(C(CN(C)C)C2(O)CCCCC2)cc1 (stereo not drawn) [venlafaxine]
- Clinical response (depression; venlafaxine up to 375 mg/day, calming effect with some reduction of sadness and emptiness): improved their level of energy

Compound: C[S+](CC[C@H](N)C(=O)[O-])C[C@H]1O[C@@H](n2cnc3c(N)ncnc32)[C@H](O)[C@@H]1O (stereo partly drawn) [SAM-e]
- GNS score [1, 4]: 40
- BDI score [2, 4]: 6
- Clinical response (mood and energy) (depression; SAM-e 400 then 800 mg, started after the nalmefene course, one week afterward): marked improvement in mood and energy level

Compound: O=C([O-])[O-].[Li+].[Li+] [Lithium carbonate]
- Clinical response (depression; [5]): lack of response
- Serum lithium levels [3]: 0.6 and 0.7

Compound: CNCCC(Oc1ccc(C(F)(F)F)cc1)c1ccccc1 (stereo not drawn) [Prozac]
- Clinical response (depression; initial treatment with Prozac, otherwise unchanged): reducing irritability
- Clinical response (depression; [5]): lack of response
